Experimental data: patent US20100062012A1, “Negative Genetic Regulation of Cancer Cell Renewal in Synergy with Notch- or Numb-Specific Immunotherapy” (priority 2007, published 2010)
Marks after values point to notes of the source that are not given here.

Legend:
PANC-1 = assay: MTT inhibition of proliferation; type: cell-based; settings: Homo sapiens; PANC-1, MTT, 72 h
Excerpt: (§1) Inhibition of proliferation of tumor cell lines by anticancer drugs.

MIA-PaCa-2 [1] = assay: MTT inhibition of proliferation; type: cell-based; settings: Homo sapiens; MIA-PaCa-2, MTT, 72 h
Excerpt: as §1

MCF7 [2] = assay: MTT inhibition of proliferation; type: cell-based; settings: Homo sapiens, 72 h
Excerpt: as §1

MIA-PaCa-2 [3] = assay: Flow cytometry of NKG2D ligands MIC-A/B in drug-resistant cells; type: cell-based, human; settings: MIA PaCa-2, FIG. 7A
Method: (§2) Flow cytometery analysis. All cells were cultured with Gem at 2×IC50 of gemcitabine for 10 days. Cultured cells (2×10^5) were washed in cold-PBS followed by blocking with 20 μL of 1 mg/mL of human IgG (Sigma, Saint Louis, Mo.) for 1 hour on ice. This step was necessary to inhibit non-specific binding of immunoglobulins during staining. Cells were then triple-stained with antibodies against ESA, CD44, and CD24. Analysis was performed with Becton Dickinson FACSCalibur and Cell Quest software (Becton Dickinson). Cells were gated on ESA+ population. Expression of CD24 and CD44 was examined in gated ESA+ cells as we described (26). The population of the ESA+, CD44hi and CD24low/− cells was calculated as percent of total cells and total ESA+ cells. All cell lines were also stained with a MIC-A/B and CD133, and analyzed as above.
To address the hypothesis that drug-resistant cancer cells are more sensitive to cellular immune effectors, we quantified expression of NKG2D ligands, MIC-A and -B (58, 59). ESA^+ MIA-PaCa-2 cells were analyzed for MIC-A/B. MCF7 cells were analyzed with CD44, CD24 and MIC-A/B (FIG. 7B), because almost all MCF7 cells (95% and more) expressed ESA.

MIA-PaCa-2 [4] = assay: Flow cytometry of CSt-C markers after culture with drugs; type: cell-based, human; settings: starting from 3.0×10^6 Mia-PaCa-2 cells
MIA-PaCa-2 [5] = assay: as above; type: cell-based, human
Method: as §2

MCF7 [6] = assay: as above; type: cell-based, human
Method: as §2

SKOV-3 = assay: MTT inhibition of proliferation; type: cell-based, human; settings: Homo sapiens, SK-OV-3, 72 h, SKOV-3, MTT
Excerpt: as §1

AsPC-1 = assay: MTT inhibition of proliferation; type: cell-based, human; settings: Homo sapiens, ASPC1, 72 h, AsPC-1, MTT, 72 h
Excerpt: as §1

MCF7 cells = assay: Stimulation of MCF7 / GEMRes MCF7 by DLL4; type: cell-based, human
Method: Stimulation of GEMRes MCF7 by DLL4. GEMRes MCF7 were obtained after culture with 0.3 uM GEM for 7 weeks. MCF7 were stimulated for 24 hrs, in medium containing estradiol, fibroblast growth factor in the presence or absence of DLL4, as described (40).

[7] = test system: CD8+ T cells (TAL) from ascites of HLA-A2+ ovarian cancer patients; assay: peptide-HLA-A2-IgG dimer staining of ovarian tumor associated lymphocytes (flow cytometry); type: cell-based, human; settings: for patients with activated CD8+ Perforin+ cells expressing TCR specific for the peptide: five ovarian cancer patients
Excerpt: Lymphocyte culture. Lymphocytes were isolated by Ficoll-gradient centrifugation from heparinized ascites from HLA-A2^+ ovarian cancer patients. After separation, we cultured lymphocytes with RPMI 1640 medium with 10% FCS and 300 IU of IL-2 (Biosource Camarillo, Calif.) for one week, as we described (23,24).
We identified cells expressing high concentrations/numbers of T cell receptors (TCRs) reactive with each peptide to evaluate the role of TCR density in CTL differentiation upon in vivo stimulation with the same ligands. The TCR^+ population which usually includes cells staining with antigen-tetramers/dimers with a mean fluorescence intensity (MFI) higher than 101, was divided in three populations, one staining with antigen-pulsed HLA-A2/IgG dimers (dimers) with a MFI (TCR) between 101 and 102, and other which stained with antigen-pulsed dimers with a MFI (TCR) between 102 and 103, and other which stained with antigen-pulsed dimers with a MFI (TCR) between 103 and 104. These populations were designated as TCR^lo, TCRmed, and […], respectively, as we described (26).
T cell: peptide-HLA-A2-lgG dimer interaction. Expression of TCRs specific for peptides Notch1 (1940-1948), Notch1 (2112-2120), Numb1 (87-95), Gli1 (580-588) and AESI (128-137) was determined using HLA-A2-IgG-dimmers (BD Bioscience Pharmingen). The peptide loaded dimers were prepared as we previously described (23). Staining of lymphocyte with dimers was performed as described previously (24,27,28).
The same cells were also stained for the expression of CD8 antigen and the presence of Perforin, (effector pore forming enzyme) using specific antibodies conjugated to distinct fluorochromes than the dimers: fluorescein isothiocianate (FITC), allophycocyanin (APC) and PE. Cells reacting with the corresponding peptide-loaded dimers are designated as Notch1-1940-TCR^+, Notch1-2112-TCR^+, Numb1-87-TCR^+, and […] cells, respectively. Cells reacted with control HLA-A2-IgG dimers not loaded with peptide are designated as dNP-TCR^+ cells.

[8] = biological target: Notch receptor on MCF7 cells (human); assay: cell-based or functional assay
[9] = MIA-PaCa-2 after culture with drug
[10] = Patient 1, TCR-density High, TAL one week in 300 IU IL-2

Sequence of recombinant human Delta-like protein 4 (Q9NR61 27-524 limits assumed, stated change not applied): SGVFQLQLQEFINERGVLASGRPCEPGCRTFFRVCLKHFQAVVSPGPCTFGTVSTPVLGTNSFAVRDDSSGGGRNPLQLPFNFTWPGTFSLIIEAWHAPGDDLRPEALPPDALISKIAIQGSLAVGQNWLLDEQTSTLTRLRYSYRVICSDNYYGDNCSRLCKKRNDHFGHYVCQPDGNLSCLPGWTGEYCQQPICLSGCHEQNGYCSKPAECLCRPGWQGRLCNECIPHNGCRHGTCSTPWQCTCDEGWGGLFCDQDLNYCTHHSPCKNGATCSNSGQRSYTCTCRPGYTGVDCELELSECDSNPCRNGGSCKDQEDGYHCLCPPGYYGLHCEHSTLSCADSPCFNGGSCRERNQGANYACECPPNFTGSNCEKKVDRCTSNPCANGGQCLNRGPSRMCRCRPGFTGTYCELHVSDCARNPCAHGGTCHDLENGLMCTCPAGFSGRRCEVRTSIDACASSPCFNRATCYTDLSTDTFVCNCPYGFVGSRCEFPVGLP

Compound	% TCR+ cells for HLA-A2: peptide [7, 10]	% TCR+ cells for HLA-A2: peptide ([7]; Patient 1, TCR-density Low) [%]	% TCR+ cells for HLA-A2: peptide ([7]; Patient 1, TCR-density Med)	% TCR+ cells for HLA-A2: peptide ([7]; Patient 2, TCR-density High) [%]	% TCR+ cells for HLA-A2: peptide ([7]; Patient 2, TCR-density Low)	% TCR+ cells for HLA-A2: peptide ([7]; Patient 2, TCR-density Med) [%]	% TCR+ cells for HLA-A2: peptide ([7]; Patient 3, TCR-density High) [%]	% TCR+ cells for HLA-A2: peptide ([7]; Patient 3, TCR-density Low) [%]	% TCR+ cells for HLA-A2: peptide ([7]; Patient 3, TCR-density Med) [%]	% TCR+ cells for HLA-A2: peptide ([7]; Patient 4, TCR-density High) [%]	% TCR+ cells for HLA-A2: peptide ([7]; Patient 4, TCR-density Low) [%]	% TCR+ cells for HLA-A2: peptide ([7]; Patient 4, TCR-density Med)	% TCR+ cells for HLA-A2: peptide ([7]; Patient 5, TCR-density High)	% TCR+ cells for HLA-A2: peptide ([7]; Patient 5, TCR-density Low) [%]	% TCR+ cells for HLA-A2: peptide ([7]; Patient 5, TCR-density Med) [%]	further results
O=c1[nH]cc(F)c(=O)[nH]1 [5-FU, 5-fluorouracil]	–	–	–	–	–	–	–	–	–	–	–	–	–	–	–	IC50 (PANC-1): 800 nM; IC50 (MIA-PaCa-2 [1]): 3.7 µM; IC50 (MCF7 [2]): 1300 nM; number of cells expressing MICA and MICB in drug-resistant cells (MIA-PaCa-2 [3]): increased; cells harvested (MIA-PaCa-2 [4]): 3.4 ×10^6 cells; change of CSt-C (CSt-like-C) population (MIA-PaCa-2 [5]; MIA-PaCa-2): increased; % CD44hi CD24- in ESA+ cells (MIA-PaCa-2 [5]; [9]): 0.2%; % CD44hi CD24hi in ESA+ cells (MIA-PaCa-2 [5]; [9]): 7.1%; % CD44hi CD24low in ESA+ cells (MIA-PaCa-2 [5]; [9]): 19.8%; % CSt-like-C (MIA-PaCa-2 [5]; [9]): 16.4%; % ESA+ (MIA-PaCa-2 [5]; [9]): 83.0%; change of CSt-like-C population (MCF7 [6]; MCF7): increased; cells harvested (MCF7 [6]; after culture of 3×10^6 MCF-7 cells): 1.6 ×10^6; IC50 (SKOV-3): 3.6 µM; IC50 (AsPC-1): 15.2 µM
DLL4: recombinant human Delta-like protein 4, soluble Notch ligand	–	–	–	–	–	–	–	–	–	–	–	–	–	–	–	expansion of CD44+ CD24low cells compared with medium (MCF7 cells; DLL4-activation of GEMRes cells): 2-3 fold; CD44hi CD24hi (% of cells) (MCF7 cells; MCF7): 36.4%; CD44hi CD24hi (cell number) (MCF7 cells; MCF7): 6.84; CD44hi CD24low (% of cells) (MCF7 cells; MCF7): (3.5%); CD44hi CD24low (cell number) (MCF7 cells; MCF7): 0.66 × 10^6; ratio CD44hi CD24hi to CD44hi CD24low (MCF7 cells; MCF7): 10.4; Stimulation Index (MCF7 cells; MCF7, harvested/seeded): 6.27; Harvested cells (MCF7 cells; MCF7, seeded 3.0 x 10^6): *18.80 10^6
LPL TPLPVGL [AES1]	0.19%	0.23	0.23%	–	–	–	–	–	–	–	–	–	–	–	–	–
RLLDEYNLV (listed as Homo sapiens) [Notch1-2112]	0.26%	0.24	0.28%	0.17	2.09* %	0.35	0.08	0.43	0.28	0.08	0.88	0.34* %	0.17%	2.52	0.36	TCRmed cells relative to base-line NP dimers ([7]; Patient 4): 2.61 times; TCRmed cells relative to base-line control dNP ([7]; Patient 5): 1.63 times; patients with activated CD8+ Perforin+ cells expressing TCR specific for the peptide [7]: two of five
RLLEASADA (listed as Homo sapiens) [Notch1-1947, used as specificity control]	–	–	–	0.10	0.99%	0.32	0.10	0.65	0.24	0.22	0.53	0.26%	0.14%	1.98	0.26	–
VLWVSADGL (listed as Homo sapiens) [Numb1-87]	0.64* %	0.51	0.66* %	0.16	2.76* %	0.46	0.09	0.50	0.21	0.22	0.53	0.26%	0.27* %	1.84	0.27	TCRhi CD8+ cells relative to cells reactive with control dNP dimers ([7]; Patient 5): 2.45 times; increase in numbers of TCRhi Perhi cells compared with Notch1-2112 dimer ([7]; TAL-1, FIG. 4): 3.3 fold; amount of Perforin in peptide-TCR+ cells ([7]; TAL-1, FIG. 4G): highest amount of Perforin; increase in numbers of TCR+ cells ([7]; TAL-2, large-size lymphocytes, FIG. 5H): 3 fold; patients with activated CD8+ Perforin+ cells expressing TCR specific for the peptide [7]: three of five
recombinant human Delta-like protein 4 (from UniProt Q9NR61 27-524) (ligand)	–	–	–	–	–	–	–	–	–	–	–	–	–	–	–	Harvested cells: 10^6 (MCF7, DLL4, no GEM; NT control 12.96) [8]: 1.88e+07 cells; Harvested cells: 10^6 (MCF7, DLL4 with GEM; GEM alone 1.32) [8]: 2.16e+06 cells; Stimulation Index (proliferation of MCF7 cells, DLL4, no GEM; NT control 4.32) [8]: 6.27; Stimulation Index (proliferation of MCF7 cells, DLL4 with GEM; GEM alone 0.44) [8]: 0.72; increase in total cell number at stimulation with DLL4 [8]: > 45%
